Results: patent EP4389827A1, “AMINOGLYCOSIDE-LINKED PHOTOSENSITIZERS” (Centre National de la Recherche Scientifique, priority 2022, dated 2024)
Values joined by “and” are separate entries in the source; they are usually repeats but may differ in a detail not shown here. Identical values can stand only once. Like-named read-outs stand apart in the source and are kept apart here.

Columns and labels:
S. aureus Newman [1] = experiment: Minimal inhibitory concentration (EUCAST), with or without 660 nm irradiation; type: cell-based, Staphylococcus aureus; details: for MIC: Staphylococcus aureus, NEWMAN, light or radiation study, 18 h, read-out: MIC
Protocol: (§1) Acinetobacter baumannii DSM30011, Bacillus subtilis 168, Pseudomonas aeruginosa PA14, P. aeruginosa PAO1, Staphylococcus aureus Mu50, S. aureus Newman and S. aureus USA300 were all grown in MHB-CA at 37°C with an agitation of 180 rpm. Candida albicans SC5314 was grown in yeast extract peptone dextrose broth at 35°C with an agitation of 180 rpm.
(§2) Minimal inhibitory concentrations (MICs) for selected bacteria were investigated according to the EUCAST guidelines. Serial dilutions of the compounds, photosensitizers and aminoglycosides were made in MHB-CA in 384-well plates. Stationary-phase cells were diluted in MHB-CA to have a final concentration of 5.5 × 10^5 CFU/mL. Samples were incubated in the dark for 20 minutes at 37°C and either irradiated at 660 nm for 30 minutes with a LED device or kept in the dark. Irradiated samples received a total of 168 mJ/mm^2. Plates were then incubated at 37°C for 18 hours and MICs were evaluated visually. Triplicates were done and the synergy, or fractional inhibitory concentration (FIC), was calculated according to Doern et al., 2014: FIC = (MIC of AB)/(MIC of A) + (MIC of AB)/(MIC of B) [formula]

P. aeruginosa PAO1 [2] = experiment: Antibacterial photodynamic therapy on biofilm cells; type: cell-based, Pseudomonas aeruginosa
Description: (§3) Compounds Neo-Ce6 and Tobra-Ce6 caused strong drop in survival for biofilms of A. baumannii […], P. aeruginosa species and S. aureus Mu50. […] Tobra-Ce6 had its strongest effect on A. baumannii DSM30011 with more than 4 log10 CFU/mL drop in survival and a drop of 1.7 log10 CFU/mL in P. aeruginosa PA14. Table 2: aPDT results for biofilm cells expressed in drop in the log10 CFU/mL compared to controls.

P. aeruginosa PA14 [3] = experiment: as above; type: cell-based, Pseudomonas aeruginosa
Description: as §3

S. aureus Mu50 [4] = experiment: Minimal inhibitory concentration (EUCAST), with or without 660 nm irradiation; type: cell-based; details: Staphylococcus aureus, MU50, light or radiation study, 18 h, read-out: MIC
Protocol: as §1, §2

S. aureus Newman [5] = experiment: Antibacterial photodynamic therapy on planktonic cells (CFU count); type: cell-based, Staphylococcus aureus; details: Staphylococcus aureus, NEWMAN, light or radiation study, 0.5 h, 10 µM, irradiated 660 nm 30 minutes, 5 J/mm^2, read-out: Mean CFU drop (survival dropped by)
Protocol: as §1
(§4) Cells were brought to stationary phase by incubating them in MHB-CA for at least 18 hours at 37°C with 180 rpm and diluted to an optical density of 1.0 just before the experiment. Cells were incubated for 20 minutes with either the compounds, photosensitizers alone, or aminoglycosides alone. Unless stated otherwise, a concentration of 10 µM was used for all experiments and samples were irradiated for 30 minutes at 660 nm with the Solis-660C lamp from ThorLabs, receiving a total of 5 J/mm^2. After illumination, cells were washed with phosphate-buffered saline (PBS) 1X, serially diluted and plated on Mueller-Hinton agar. The next day, colony forming units (CFUs) were counted.

S. aureus Mu50 [6] = experiment: as above; type: cell-based, Staphylococcus aureus; details: for log reduction at 10 µM: Staphylococcus aureus, MU50, light or radiation study, 0.5 h, irradiated 660 nm 30 minutes, 5 J/mm^2, read-out: Mean CFU drop (survival dropped by)
Protocol: as §1, §4

A. baumannii DSM30011 [7] = experiment: Antibacterial photodynamic therapy on biofilm cells; type: cell-based, Acinetobacter baumannii
Description: as §3

S. aureus USA300 [8] = experiment: Antibacterial photodynamic therapy on planktonic cells (CFU count); type: cell-based; details: Staphylococcus aureus, USA300, light or radiation study, 0.5 h, irradiated 660 nm 30 minutes, 5 J/mm^2, read-out: Mean CFU drop (survival dropped by)
Protocol: as §1, §4

P. aeruginosa PAO1 [9] = experiment: Minimal inhibitory concentration (EUCAST), with or without 660 nm irradiation; type: cell-based, Pseudomonas aeruginosa; details: for MIC: Pseudomonas aeruginosa, PAO1, light or radiation study, 18 h, read-out: MIC
Protocol: as §1, §2

P. aeruginosa PA14 [10] = experiment: as above; type: cell-based, Pseudomonas aeruginosa; details: for MIC: read-out: MIC
Protocol: as §1, §2

S. aureus Newman [11] = experiment: Antibacterial photodynamic therapy on biofilm cells; type: cell-based, Staphylococcus aureus
Description: as §3

S. aureus USA300 [12] = experiment: as above; type: cell-based, Staphylococcus aureus
Description: as §3

S. aureus Mu50 [13] = experiment: as above; type: cell-based, Staphylococcus aureus
Description: as §3

A. baumannii DSM30011 [14] = experiment: Minimal inhibitory concentration (EUCAST), with or without 660 nm irradiation; type: cell-based, Acinetobacter baumannii; details: for MIC: Acinetobacter baumannii, DSM30011, light or radiation study, 18 h, read-out: MIC
Protocol: as §1, §2

[15] = system: S. aureus USA300 persister cells; experiment: Antibacterial photodynamic therapy on persister cells; type: cell-based, Staphylococcus aureus; details: persister cells (6 hours, 2 mM neomycin); aPDT at 10 µM, 5 J/mm^2 (Figure 6a)
Protocol: Persister plateau and AG concentration varied from one species to another. In S. aureus USA300, a stable plateau was obtained following 6 hours of incubation with 2 mM of neomycin. […] This control is crucial to make sure that a persister state has been achieved. […] As there are no significant differences between irradiated and non-irradiated samples, however, the production of singlet oxygen may not be the factor leading to cell death. In S. aureus Newman, cells were treated for 24 hours with 1 mM of neomycin. […] Although this synergy does exist, like in S. aureus USA300, there is no significant difference in survival for irradiated and non-irradiated samples, except for Ce6.

Solubility in water = type: physicochemical
[16] = with (+) irradiation, 660 nm 30 minutes, 168 mJ/mm^2
[17] = conjugate with irradiation, from FIC

SMILES: C=Cc1c(C)c2cc3nc(c(CC(=O)O)c4[nH]c(cc5nc(cc1[nH]2)C(C)=C5CC)c(C)c4C(=O)O)[C@@H](CCC(=O)O)[C@@H]3C [Ce6, chlorin e6]
- MIC (S. aureus Newman [1]; [16]): 64 µM
- MIC (S. aureus Newman [1]; without (-) irradiation): > 64 µM
- drop in the log10 CFU/mL compared to controls (P. aeruginosa PAO1 [2]; + irradiation): 0.25 log10 CFU/mL
- drop in the log10 CFU/mL compared to controls (P. aeruginosa PAO1 [2]; - irradiation): 0.28 log10 CFU/mL
- drop in the log10 CFU/mL compared to controls (P. aeruginosa PA14 [3]; + irradiation): 0.60 log10 CFU/mL
- drop in the log10 CFU/mL compared to controls (P. aeruginosa PA14 [3]; - irradiation): 0.29 log10 CFU/mL
- MIC (S. aureus Mu50 [4]; [16]): 4 µM
- MIC (S. aureus Mu50 [4]; without (-) irradiation): > 64 µM
- log reduction at 10 µM (S. aureus Newman [5]): ~3.6
- log reduction at 10 µM (S. aureus Mu50 [6]): 3.2
- drop in the log10 CFU/mL compared to controls (A. baumannii DSM30011 [7]; + irradiation): 0.71 log10 CFU/mL
- drop in the log10 CFU/mL compared to controls (A. baumannii DSM30011 [7]; - irradiation): 0.45 log10 CFU/mL
- log reduction at 10 µM (S. aureus USA300 [8]): 3.2
- MIC (P. aeruginosa PAO1 [9]; [16]): > 64 µM
- MIC (P. aeruginosa PAO1 [9]; without (-) irradiation): > 64 µM
- MIC (P. aeruginosa PA14 [10]; Pseudomonas aeruginosa, PA14, light or radiation study, 18 h, without (-) irradiation): > 64 µM
- MIC (P. aeruginosa PA14 [10]; [16]): > 64 µM
- drop in the log10 CFU/mL compared to controls (S. aureus Newman [11]; + irradiation): 0.57 log10 CFU/mL
- drop in the log10 CFU/mL compared to controls (S. aureus Newman [11]; - irradiation): -0.19 log10 CFU/mL
- drop in the log10 CFU/mL compared to controls (S. aureus USA300 [12]; + irradiation): 0.73 log10 CFU/mL
- drop in the log10 CFU/mL compared to controls (S. aureus USA300 [12]; - irradiation): 0.33 log10 CFU/mL
- drop in the log10 CFU/mL compared to controls (S. aureus Mu50 [13]; + irradiation): 0.36 log10 CFU/mL
- drop in the log10 CFU/mL compared to controls (S. aureus Mu50 [13]; - irradiation): -0.005 log10 CFU/mL
- MIC (A. baumannii DSM30011 [14]; [16]): > 64 µM
- MIC (A. baumannii DSM30011 [14]; without (-) irradiation): > 64 µM
- persister cell survival (in words) [15]: some killing
- solubility (Solubility in water): poorly soluble in water

SMILES: C=Cc1c(C)c2cc3nc(c(CC(=O)O)c4[nH]c(cc5nc(cc1[nH]2)C(C)=C5CC)c(C)c4C(=O)O)[C@@H](CCC(=O)NC[C@H]1O[C@H](O[C@@H]2[C@@H](O)[C@H](O[C@H]4O[C@H](CN)[C@@H](O)C[C@H]4N)[C@@H](N)C[C@H]2N)[C@H](O)[C@@H](N)[C@@H]1O)[C@@H]3C [Tobra-Ce6]
- MIC (S. aureus Newman [1]; [16]): 2 µM
- MIC (S. aureus Newman [1]; without (-) irradiation): > 16 µM
- Synergy (S. aureus Newman [1]; [17]): +
- drop in the log10 CFU/mL compared to controls (P. aeruginosa PAO1 [2]; + irradiation): 1.25 log10 CFU/mL
- drop in the log10 CFU/mL compared to controls (P. aeruginosa PAO1 [2]; - irradiation): 0.79 log10 CFU/mL
- drop in the log10 CFU/mL compared to controls (P. aeruginosa PA14 [3]; + irradiation): 1.7 log10 CFU/mL and 1.69 log10 CFU/mL
- drop in the log10 CFU/mL compared to controls (P. aeruginosa PA14 [3]; - irradiation): 0.85 log10 CFU/mL
- MIC (S. aureus Mu50 [4]; [16]): 2 to 4 µM
- MIC (S. aureus Mu50 [4]; without (-) irradiation): 16 µM
- log reduction at 10 µM (S. aureus Newman [5]): ~3.9
- log reduction at 10 µM (S. aureus Mu50 [6]): 5.4
- survival (in words) (S. aureus Mu50 [6]; irradiated samples, 5 J/mm^2 (Figure 3a)): high bacterial death
- drop in the log10 CFU/mL compared to controls (A. baumannii DSM30011 [7]; - irradiation): 1.58 log10 CFU/mL
- log reduction at 10 µM (S. aureus USA300 [8]): 3.5
- MIC (P. aeruginosa PAO1 [9]; [16]): 4 to 8 µM
- MIC (P. aeruginosa PAO1 [9]; without (-) irradiation): > 16 µM
- Synergy (P. aeruginosa PAO1 [9]; [17]): -
- MIC (P. aeruginosa PA14 [10]; Pseudomonas aeruginosa, PA14, light or radiation study, 18 h, with (+) irradiation, 660 nm 30 minutes, 168 mJ/mm^2): > 16 µM
- Synergy (P. aeruginosa PA14 [10]; [17]): -
- MIC (P. aeruginosa PA14 [10]; without (-) irradiation): > 16 µM
- drop in the log10 CFU/mL compared to controls (S. aureus Newman [11]; + irradiation): 1.36 log10 CFU/mL
- drop in the log10 CFU/mL compared to controls (S. aureus Newman [11]; - irradiation): 0.49 log10 CFU/mL
- drop in the log10 CFU/mL compared to controls (S. aureus USA300 [12]; + irradiation): 0.14 log10 CFU/mL
- drop in the log10 CFU/mL compared to controls (S. aureus USA300 [12]; - irradiation): 0.28 log10 CFU/mL
- drop in the log10 CFU/mL compared to controls (S. aureus Mu50 [13]; + irradiation): 1.32 log10 CFU/mL
- drop in the log10 CFU/mL compared to controls (S. aureus Mu50 [13]; - irradiation): 0.37 log10 CFU/mL
- MIC (A. baumannii DSM30011 [14]; [16]): 2 to 4 µM
- MIC (A. baumannii DSM30011 [14]; without (-) irradiation): > 16 µM
- Synergy (A. baumannii DSM30011 [14]; [17]): +
- persister cell survival (in words) [15]: close to or under the detection limit
- solubility (Solubility in water): highly soluble
